Source: ChEMBL document CHEMBL1134276, “Synthesis and antibacterial activity of acylides (3-O-acyl-erythromycin derivatives): a novel class of macrolide antibiotics” (2001)
Converted amounts (≈) assume the structure as drawn.

Tests used:
Staphylococcus aureus [1] = assay: In vitro antibacterial activity against an inducibly MLS B resistant Staphylococcus aureus B1 strain; assay type: functional
Staphylococcus aureus [2] = assay: In vitro antibacterial activity against erythromycin-susceptible Staphylococcus aureus 209P-JC strain; assay type: functional
Staphylococcus aureus [3] = assay: In vitro antibacterial activity against constitutively MLS B resistant Staphylococcus aureus SR138 strain encoded by an ermA gene; assay type: functional
Haemophilus influenzae = assay: In vitro antibacterial activity against erythromycin-susceptible Hemophilus influenzae ATCC 43095 strain; assay type: functional
Streptococcus pneumoniae [4] = assay: In vitro antibacterial activity against MLS-B resistant Streptococcus pneumoniae 221 strain encoded by an erm B gene; assay type: functional
Enterococcus faecalis [5] = assay: In vitro antibacterial activity against erythromycin-susceptible Enterococcus faecalis ATCC 29212 strain; assay type: functional
Streptococcus pneumoniae [6] = assay: In vitro antibacterial activity against erythromycin efflux resistant Streptococcus pneumoniae 210 strain; assay type: functional
Mus musculus [7] = assay: In vivo effective dose against erythromycin susceptible Staphylococcus aureus strain Smith by mouse protection test; assay type: functional
Staphylococcus aureus [8] = assay: In vivo minimum inhibitory concentration against erythromycin susceptible Staphylococcus aureus Smith strain by mouse protection test; assay type: functional
Enterococcus faecium [9] = assay: In vitro antibacterial activity against erythromycin-susceptible Enterococcus faecium ATCC 19434 strain; assay type: functional
Streptococcus pneumoniae [10] = assay: In vitro antibacterial activity against erythromycin-susceptible Streptococcus pneumoniae IID553 strain; assay type: functional
Staphylococcus aureus [11] = assay: In vitro antibacterial activity against inducibly MLS B resistant Staphylococcus aureus B1 strain; assay type: functional
Mus musculus [12] = assay: (§1) In vivo effective dose against erythromycin susceptible Staphylococcus aureus Smith strain by mouse protection test(95% confidence limits); assay type: functional
Staphylococcus aureus [13] = assay: In vivo Minimum inhibitory conc against erythromycin susceptible Staphylococcus aureus Smith strain by mouse protection test; assay type: functional
Enterococcus faecium [14] = assay: In vitro antibacterial activity against erythromycin-susceptible Enterococcus faecium ATCC 19434 strain
Staphylococcus aureus [15] = assay: In vitro antibacterial activity against constitutively MLS B resistant Staphylococcus aureus SR138 strain; assay type: functional
Enterococcus faecium [16] = assay: In vitro antibacterial activity against erythromycin-susceptible Enterococcus faecium ATCC 29212 strain; assay type: functional
Staphylococcus aureus [17] = assay: as §1; assay type: functional
Staphylococcus aureus [18] = assay: In vivo Minimum inhibitory conc against erythromycin susceptible Staphylococcus aureus strain Smith by mouse protection test; assay type: functional
Streptococcus pneumoniae [19] = assay: In vitro antibacterial activity against constitutively MLS B resistant […] strain encoded by an ermB gene; assay type: functional
Enterococcus faecalis [20] = assay: In vitro antibacterial activity against erythromycin-susceptible Enterococcus faecalis ATCC 19434 strain; assay type: functional
Streptococcus pneumoniae [21] = assay: In vitro antibacterial activity against erythromycin- susceptible Streptococcus pneumoniae IID553 strain; assay type: functional

Compound	MIC (Staphylococcus aureus [1]) [µg/mL]	MIC (Staphylococcus aureus [2]) [µg/mL]	MIC (Staphylococcus aureus [3]) [µg/mL]	also measured
CC[C@H]1OC(=O)[C@H](C)[C@@H](OC(C)=O)[C@H](C)[C@@H](OC2O[C@H](C)C[C@H](N(C)C)C2O)[C@@](C)(OC)C[C@@H](C)C(=O)[C@H](C)[C@@H](O)[C@]1(C)O (stereo partly specified)	> 100	50 (≈ 79.1 µM)	> 100	
CC[C@H]1OC(=O)[C@H](C)[C@@H](O)[C@H](C)[C@@H](OC2O[C@H](C)C[C@H](N(C)C)C2O)[C@@](C)(OC)C[C@@H](C)C(=O)[C@H](C)[C@@H](O)[C@]1(C)O (stereo partly specified)		> 100		
CC[C@H]1OC(=O)[C@H](C)[C@@H](OC2CCCCO2)[C@H](C)[C@@H](OC2O[C@H](C)C[C@H](N(C)C)C2O)[C@@](C)(OC)C[C@@H](C)C(=O)[C@H](C)[C@@H](O)[C@]1(C)O (stereo partly specified)	> 100	12.5 (≈ 18.5 µM)	> 100	
CC[C@H]1OC(=O)[C@H](C)[C@@H](OC(=O)Cc2ccc([N+](=O)[O-])cc2)[C@H](C)[C@@H](O[C@@H]2O[C@H](C)C[C@H](N(C)C)[C@H]2O)[C@@](C)(OC)C[C@@H](C)C(=O)[C@H](C)[C@@H](O)[C@]1(C)O	0.39 (≈ 0.518 µM)	0.2 (≈ 0.266 µM)	> 100	MIC (Haemophilus influenzae): 25 µg/mL (≈ 33.2 µM); MIC (Streptococcus pneumoniae [4]): > 100 µg/mL; MIC (Enterococcus faecalis [5]): 0.2 µg/mL (≈ 0.266 µM); MIC (Streptococcus pneumoniae [6]): 0.2 µg/mL (≈ 0.266 µM); ED50 (Mus musculus [7]): 15.4 mg/kg; MIC (Staphylococcus aureus [8]): 0.39 µg/mL (≈ 0.518 µM); MIC (Enterococcus faecium [9]): 0.05 µg/mL (≈ 0.0664 µM); MIC (Streptococcus pneumoniae [10]): 0.2 µg/mL (≈ 0.266 µM)
CC[C@H]1OC(=O)[C@H](C)[C@@H](OC(=O)Cc2ccccc2)[C@H](C)[C@@H](O[C@@H]2O[C@H](C)C[C@H](N(C)C)[C@H]2O)[C@@](C)(OC)C[C@@H](C)C(=O)[C@H](C)[C@@H](O)[C@]1(C)O	> 100	0.78 (≈ 1.1 µM)	> 100	
CC[C@H]1OC(=O)[C@H](C)[C@@H](OC(=O)CN)[C@H](C)[C@@H](OC2O[C@H](C)C[C@H](N(C)C)C2O)[C@@](C)(OC)C[C@@H](C)C(=O)[C@H](C)[C@@H](O)[C@]1(C)O (stereo partly specified)	> 100	12.5 (≈ 19.3 µM)	> 100	
CC[C@H]1OC(=O)[C@H](C)[C@@H](OC(=O)CC#N)[C@H](C)[C@@H](OC2O[C@H](C)C[C@H](N(C)C)C2O)[C@@](C)(OC)C[C@@H](C)C(=O)[C@H](C)[C@@H](O)[C@]1(C)O (stereo partly specified)	> 100	25 (≈ 38.1 µM)	> 100	
CC[C@H]1OC(=O)[C@H](C)[C@@H](OS(=O)(=O)Cc2ccccc2)[C@H](C)[C@@H](OC2O[C@H](C)C[C@H](N(C)C)C2O)[C@@](C)(OC)C[C@@H](C)C(=O)[C@H](C)[C@@H](O)[C@]1(C)O (stereo partly specified)		> 100		
CC[C@H]1OC(=O)[C@H](C)[C@@H](OC(=O)CNC(=O)OCc2ccccc2)[C@H](C)[C@@H](OC2O[C@H](C)C[C@H](N(C)C)C2O)[C@@](C)(OC)C[C@@H](C)C(=O)[C@H](C)[C@@H](O)[C@]1(C)O (stereo partly specified)	> 100	3.13 (≈ 4.01 µM)	> 100	
CC[C@H]1OC(=O)[C@H](C)[C@@H](OC(=O)c2ccc([N+](=O)[O-])cc2)[C@H](C)[C@@H](OC2O[C@H](C)C[C@H](N(C)C)C2O)[C@@](C)(OC)C[C@@H](C)C(=O)[C@H](C)[C@@H](O)[C@]1(C)O (stereo partly specified)	> 100	50 (≈ 67.7 µM)	> 100	
CC[C@H]1OC(=O)[C@H](C)[C@@H](OC(=O)CNC(=O)OC(C)(C)C)[C@H](C)[C@@H](OC2O[C@H](C)C[C@H](N(C)C)C2O)[C@@](C)(OC)C[C@@H](C)C(=O)[C@H](C)[C@@H](O)[C@]1(C)O (stereo partly specified)	> 100	12.5 (≈ 16.7 µM)	> 100	
CC[C@H]1OC(=O)[C@H](C)[C@@H](O[C@H]2C[C@@](C)(OC)[C@@H](O)[C@H](C)O2)[C@H](C)[C@@H](O[C@@H]2O[C@H](C)C[C@H](N(C)C)[C@H]2O)[C@](C)(OC)C[C@@H](C)C(=O)[C@H](C)[C@@H](O)[C@]1(C)O [CLARITHROMYCIN]		0.1 (≈ 0.134 µM)		MIC (Haemophilus influenzae): 6.25 µg/mL (≈ 8.36 µM); MIC (Streptococcus pneumoniae [4]): > 100 µg/mL; MIC (Enterococcus faecalis [5]): 1.56 µg/mL (≈ 2.09 µM); MIC (Streptococcus pneumoniae [6]): 1.56 µg/mL (≈ 2.09 µM); MIC (Staphylococcus aureus [11]): > 100 µg/mL; ED50 (Mus musculus [12]): 7.6 mg/kg; MIC (Staphylococcus aureus [13]): 0.2 µg/mL (≈ 0.267 µM); MIC (Enterococcus faecium [14]): 1.56 µg/mL (≈ 2.09 µM); MIC (Streptococcus pneumoniae [10]): 0.05 µg/mL (≈ 0.0668 µM); MIC (Staphylococcus aureus [15]): > 100 µg/mL
CC[C@H]1OC(=O)[C@H](C)[C@@H](O[C@H]2C[C@@](C)(OC)[C@@H](O)[C@H](C)O2)[C@H](C)[C@@H](O[C@@H]2O[C@H](C)C[C@H](N(C)C)[C@H]2O)[C@](C)(O)C[C@@H](C)C(=O)[C@H](C)[C@@H](O)[C@]1(C)O [ERYTHROMYCIN]				MIC (Haemophilus influenzae): 6.25 µg/mL (≈ 8.52 µM); MIC (Streptococcus pneumoniae [6]): 1.56 µg/mL (≈ 2.13 µM); MIC (Enterococcus faecium [16]): 1.56 µg/mL (≈ 2.13 µM); ED50 (Staphylococcus aureus [17]): 56.6 mg/kg; MIC (Staphylococcus aureus [18]): 0.2 µg/mL (≈ 0.273 µM); MIC (Streptococcus pneumoniae [19]): > 100 µg/mL; MIC (Enterococcus faecalis [20]): 3.13 µg/mL (≈ 4.26 µM); MIC (Streptococcus pneumoniae [21]): 0.1 µg/mL (≈ 0.136 µM)
